Where “and” joins values, the source holds several entries; their conditions need not be identical. Identical values can stand only once.
How the values were obtained:
Assay type in all cases: cell-based
[1] = test system: Staphylococcus aureus ATCC 6538; test: Hydrogen peroxide exposed or not exposed to photons applied to inoculated target microbes; conditions: contact time 5 Minutes; for CFU/ml: single replicates
Description: The test substances were hydrogen peroxide at 1 ppm and at 0.3%, which were exposed or not exposed to photons of 0.01 nm through 845 nm and applied to target of microbes, which included a carrier for the inoculated target microbes such as agar with a viable bacteria concentration of Staphylococcus aureus ATCC 6538. The control for this test was a similar inoculated plate and it was treated in the same manor but there was no application of photons to the oxidizing agent.

[2] = test system: viable cells (microbial counts); test: Independent lab testing of the HVAC antimicrobial system utilizing Photon Augmented Oxidizing Agents (coupons, ambient air); conditions: 1 part per million, 5 minute contact time with the ambient air
Description: All test samples were compared against the Control provided. (Independent lab testing of the HVAC antimicrobial system utilizing Photon Augmented Oxidizing Agents).

[3] = test system: E. coli ATCC 11229; test: Carrier test of residual antimicrobial effect, 4 weeks post photon exposure; conditions: contact time 10 Minutes, 4 weeks post exposure to radiation

| Structure (SMILES) | Average CFU/ml [1] | Average Log10 Reduction Compared to Controls [1] | Average Percent Reduction Compared to Controls [1] | CFU/ml [1] | microbial reduction [2] | Average Log10 Reduction Compared to Controls [3] | Average Percent Reduction Compared to Controls [3] | CFU/Carrier [3] | Average Percent Reduction Compared to Controls ([3]; listed as control substance) |
| --- | --- | --- | --- | --- | --- | --- | --- | --- | --- |
| OO [1 PPM No photon emission, hydrogen peroxide] | 4.05E+06 CFU/ml | No Reduction | No Reduction | 4.10E+06 CFU/ml | – | – | – | – | – |
| OO [standard hydrogen peroxide, hydrogen peroxide] | – | – | – | – | little or no microbial reduction | – | – | – | – |
| OO [Control Substance, hydrogen peroxide] | – | – | – | – | – | 0.11 Log10 | 23.08% | 3.00E+04 CFU/Carrier | 23.08% |
| OO [0.3% No photon emission, hydrogen peroxide] | 4.05E+06 CFU/ml | No Reduction | No Reduction | 4.10E+06 CFU/ml and 4.00E+06 CFU/ml | – | – | – | – | – |
